# Measured values reported in article PMC5974041, “Functional Studies of Sex Pheromone Receptors in Asian Corn Borer Ostrinia furnacalis” (Frontiers in Physiology, 2018).
# Experiments:
# Assay in all cases: two-electrode voltage clamp, Xenopus oocytes
# Assay type in all cases: cell-based
# Settings in all cases: pH 7.6 Ringer's buffer, -80 mV, co-expressed OfurOrco, agonist
# OfurOR5b = biological target: T1, OfurOR5b (Ostrinia furnacalis, UniProt M4NPQ0)
# T1 construct: gene OR5b; full-length ORF from male antennal cDNA, untagged, in PT7TS; cRNA co-injected 1:1 with OfurOrco in Xenopus oocytes; with Odorant receptor co-receptor (Orco)
# T1 sequence (M4NPQ0 1-424): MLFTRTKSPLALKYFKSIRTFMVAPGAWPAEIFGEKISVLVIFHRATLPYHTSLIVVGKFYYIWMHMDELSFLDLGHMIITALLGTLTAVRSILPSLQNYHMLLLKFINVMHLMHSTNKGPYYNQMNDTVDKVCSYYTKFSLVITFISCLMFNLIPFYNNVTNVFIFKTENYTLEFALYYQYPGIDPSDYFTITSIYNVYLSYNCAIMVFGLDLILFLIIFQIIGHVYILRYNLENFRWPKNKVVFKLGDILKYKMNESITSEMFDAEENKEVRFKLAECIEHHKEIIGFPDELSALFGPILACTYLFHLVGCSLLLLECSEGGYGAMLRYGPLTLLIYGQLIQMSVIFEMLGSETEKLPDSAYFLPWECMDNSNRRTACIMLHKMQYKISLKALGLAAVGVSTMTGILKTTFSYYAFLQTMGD
# T1 sequence (A0A0E4B591 1-474 partner): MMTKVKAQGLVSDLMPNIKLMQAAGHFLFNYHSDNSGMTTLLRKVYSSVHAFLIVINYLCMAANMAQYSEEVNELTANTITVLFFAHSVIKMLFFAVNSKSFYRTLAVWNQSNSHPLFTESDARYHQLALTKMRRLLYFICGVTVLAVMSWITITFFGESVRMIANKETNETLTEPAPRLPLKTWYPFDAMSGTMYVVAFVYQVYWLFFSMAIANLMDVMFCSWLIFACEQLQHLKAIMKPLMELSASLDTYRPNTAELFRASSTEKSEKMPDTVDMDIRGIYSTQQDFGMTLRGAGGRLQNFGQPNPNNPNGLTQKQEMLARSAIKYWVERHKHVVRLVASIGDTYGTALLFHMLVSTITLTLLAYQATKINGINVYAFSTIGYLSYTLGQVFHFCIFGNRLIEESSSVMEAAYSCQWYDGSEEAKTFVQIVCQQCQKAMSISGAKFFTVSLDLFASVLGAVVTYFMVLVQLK
# OfurOR4 = biological target: T2, OfurOR4 (Ostrinia furnacalis, UniProt A0A0E3VLP9)
# T2 construct: gene OR4; full-length ORF from male antennal cDNA, untagged, in PT7TS; cRNA co-injected 1:1 with OfurOrco in Xenopus oocytes; naming of Yang et al. 2015 (group OR4 = OnubOR3 of Wanner/Leary); with Odorant receptor co-receptor (Orco)
# T2 sequence (A0A0E3VLP9 1-422): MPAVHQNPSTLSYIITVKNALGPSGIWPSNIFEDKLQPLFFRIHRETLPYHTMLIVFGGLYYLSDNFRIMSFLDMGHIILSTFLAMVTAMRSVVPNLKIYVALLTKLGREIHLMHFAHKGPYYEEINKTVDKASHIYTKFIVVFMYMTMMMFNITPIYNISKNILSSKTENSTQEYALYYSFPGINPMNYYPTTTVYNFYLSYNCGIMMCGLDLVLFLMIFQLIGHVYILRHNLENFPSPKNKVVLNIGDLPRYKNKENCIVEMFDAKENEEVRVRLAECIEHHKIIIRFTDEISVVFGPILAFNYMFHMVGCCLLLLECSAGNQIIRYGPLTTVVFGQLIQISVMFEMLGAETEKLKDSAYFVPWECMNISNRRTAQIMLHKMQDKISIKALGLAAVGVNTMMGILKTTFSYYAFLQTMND
# T2 sequence (A0A0E4B591 1-474 partner): T1 sequence (A0A0E4B591 1-474 partner)
# OfurOR8 = biological target: T3, OfurOR8 (Ostrinia furnacalis, UniProt A0A0E4B5G7)
# T3 construct: gene OR8; full-length ORF from male antennal cDNA, untagged, in PT7TS; cRNA co-injected 1:1 with OfurOrco in Xenopus oocytes; naming of Yang et al. 2015; with Odorant receptor co-receptor (Orco)
# T3 sequence (A0A0E4B5G7 1-437): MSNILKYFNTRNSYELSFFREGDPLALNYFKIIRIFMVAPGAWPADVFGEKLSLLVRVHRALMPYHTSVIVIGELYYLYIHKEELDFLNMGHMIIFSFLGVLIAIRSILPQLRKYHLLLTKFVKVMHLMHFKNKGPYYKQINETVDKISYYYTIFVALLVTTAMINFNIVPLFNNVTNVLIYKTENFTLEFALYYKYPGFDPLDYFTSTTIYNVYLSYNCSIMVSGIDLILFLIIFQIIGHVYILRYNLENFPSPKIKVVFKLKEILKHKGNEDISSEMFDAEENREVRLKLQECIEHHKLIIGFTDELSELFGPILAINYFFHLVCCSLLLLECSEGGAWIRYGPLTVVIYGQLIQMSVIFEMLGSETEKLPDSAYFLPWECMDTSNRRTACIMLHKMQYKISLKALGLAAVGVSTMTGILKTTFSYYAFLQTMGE
# T3 sequence (A0A0E4B591 1-474 partner): T1 sequence (A0A0E4B591 1-474 partner)
# OfurOR6 = biological target: T4, OfurOR6 (Ostrinia furnacalis, UniProt M4NL06)
# T4 construct: gene OR6; full-length ORF from male antennal cDNA, untagged, in PT7TS; cRNA co-injected 1:1 with OfurOrco in Xenopus oocytes; naming of Yang et al. 2015; with Odorant receptor co-receptor (Orco)
# T4 sequence (M4NL06 1-421): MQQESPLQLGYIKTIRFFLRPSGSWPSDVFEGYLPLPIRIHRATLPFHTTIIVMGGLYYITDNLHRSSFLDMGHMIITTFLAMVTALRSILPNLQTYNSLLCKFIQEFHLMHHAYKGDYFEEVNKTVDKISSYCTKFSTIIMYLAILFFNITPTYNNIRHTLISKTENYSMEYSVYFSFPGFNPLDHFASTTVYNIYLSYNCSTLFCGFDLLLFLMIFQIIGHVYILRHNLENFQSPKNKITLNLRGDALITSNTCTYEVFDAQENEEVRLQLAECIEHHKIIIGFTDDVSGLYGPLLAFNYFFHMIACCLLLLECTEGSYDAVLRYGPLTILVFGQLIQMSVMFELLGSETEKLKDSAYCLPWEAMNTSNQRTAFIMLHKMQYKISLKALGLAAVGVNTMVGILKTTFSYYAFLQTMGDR
# T4 sequence (A0A0E4B591 1-474 partner): T1 sequence (A0A0E4B591 1-474 partner)
# OfurOR7 = biological target: T5, OfurOR7 (Ostrinia furnacalis, UniProt M4NKX7)
# T5 construct: gene OR7; full-length ORF from male antennal cDNA, untagged, in PT7TS; cRNA co-injected 1:1 with OfurOrco in Xenopus oocytes; naming of Yang et al. 2015; with Odorant receptor co-receptor (Orco)
# T5 sequence (M4NKX7 1-428): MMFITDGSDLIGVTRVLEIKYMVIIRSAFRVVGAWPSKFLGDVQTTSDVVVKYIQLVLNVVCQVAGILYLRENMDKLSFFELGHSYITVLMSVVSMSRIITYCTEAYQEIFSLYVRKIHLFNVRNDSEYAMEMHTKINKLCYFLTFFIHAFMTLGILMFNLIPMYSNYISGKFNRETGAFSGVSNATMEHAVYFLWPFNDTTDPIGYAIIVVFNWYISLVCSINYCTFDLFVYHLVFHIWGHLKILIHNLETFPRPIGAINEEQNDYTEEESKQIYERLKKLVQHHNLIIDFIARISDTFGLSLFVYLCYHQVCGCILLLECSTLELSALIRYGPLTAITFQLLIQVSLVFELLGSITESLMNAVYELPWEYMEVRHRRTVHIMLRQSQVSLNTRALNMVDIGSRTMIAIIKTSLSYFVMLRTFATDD
# T5 sequence (A0A0E4B591 1-474 partner): T1 sequence (A0A0E4B591 1-474 partner)
compound,measurement,setting,value
"CC/C=C\CCCCCCCCCCOC(C)=O [Z11-14:OAc, (Z)-11-tetradecenyl acetate]",current at 100 μM,OfurOR5b,"OfurOR5b broadly tuned to Z9-14:OAc, E11-14:OAc, Z11-14:OAc, E12-14:OAc, and Z12-14:OAc"
same,current at 100 μM,OfurOR4,"inhibited the response of Z9-14:OAc, Z11-14:OAc, and E11-14:OAc"
same,current at 100 μM,OfurOR8,76.8 ± 14.1 nA
"CC/C=C/CCCCCCCCCCOC(C)=O [E11-14:OAc, (E)-11-tetradecenyl acetate]",current at 100 μM,OfurOR5b,"OfurOR5b broadly tuned to Z9-14:OAc, E11-14:OAc, Z11-14:OAc, E12-14:OAc, and Z12-14:OAc"
same,current at 100 μM,OfurOR4,"inhibited the response of Z9-14:OAc, Z11-14:OAc, and E11-14:OAc"
same,current at 100 μM,OfurOR8,144.6 ± 28.3 nA
"C/C=C/CCCCCCCCCCCOC(C)=O [E12-14:OAc, E-12-tetradecenyl acetate]",current at 100 μM,OfurOR6,140.7 ± 6.0 nA
same,current at 100 μM,OfurOR5b,"OfurOR5b broadly tuned to Z9-14:OAc, E11-14:OAc, Z11-14:OAc, E12-14:OAc, and Z12-14:OAc"
same,current at 100 μM,OfurOR4; standard order of application (response depends on order),727.9 ± 120.4 nA
"C/C=C\CCCCCCCCCCCOC(C)=O [Z12-14:OAc, (Z)-12-tetradecenyl acetate]",current at 100 μM,OfurOR5b,"OfurOR5b broadly tuned to Z9-14:OAc, E11-14:OAc, Z11-14:OAc, E12-14:OAc, and Z12-14:OAc"
same,current at 100 μM,OfurOR4,1876.8 ± 165 nA
"CCCC/C=C\CCCCCCCCOC(C)=O [Z9-14:OAc, (Z)-9-tetradecenyl acetate]",current at 100 μM,OfurOR7,212.2 ± 46.3 nA
same,current at 100 μM,OfurOR5b,"OfurOR5b broadly tuned to Z9-14:OAc, E11-14:OAc, Z11-14:OAc, E12-14:OAc, and Z12-14:OAc"
same,current at 100 μM,OfurOR4,"inhibited the response of Z9-14:OAc, Z11-14:OAc, and E11-14:OAc"
same,current at 100 μM,OfurOR8,8.5 ± 5.2 nA
